# Measurements taken from patent US20230404989A1, “GRK2 INHIBITION BY PAROXETINE AMELIORATES OSTEOARTHRITIS” (THE PENN STATE RESEARCH FOUNDATION, priority 2020, published 2023).
# Entries after “also recorded” stand apart in the source; their conditions may differ.
# What was measured:
# [1] = tested on: DMM mice; assay: DMM drug treatment study: OARSI scoring and histomorphometry of knee cartilage; type: in vivo, mouse; conditions: for cartilage degeneration (Safranin-O and Fast Green histology) / chondro-protective and matrix-regenerative effects (overall) / total number of chondrocytes / uncalcified cartilage area: daily ip week 8 to 12; for OARSI score / number of matrix producing chondrocytes: daily ip week 8 to 12, versus vehicle
# Procedure: Drug treatment studies: In twelve-week old male wild type C57BL/6 mice that received DMM surgeries, vehicle (PBS), paroxetine (5 mg/kg/day), fluoxetine (5 mg/kg/day), gallein (10 mg/kg/day) or indomethacin (2.5 mg/kg/day) were administered daily by ip injection. Drug treatment was initiated 8 weeks following DMM to determine the role of GRK2 signaling in the progression of OA.
# Twelve-week-old male mice were administered DMM surgery to the right knee and sham surgery to the left knee as described (S. S. Glasson, Osteoarthritis. Cartilage. 15, 1061-1069 (2007)). Briefly, mice were anesthetized via intraperitoneal injection of ketamine (60 mg/kg) and xylazine (4 mg/kg), and a 5-mm-long incision was made on the medial side of the knee. Under a dissecting microscope, an incision was made along the medial side of the patellar tendon, opening the joint space. Using a #11 scalpel, the medial meniscotibial ligament (MMTL) was transected, enabling the medial meniscus to move freely. A similar skin incision was made in sham knees, but the joint structure was not disturbed. For the sham group, both right and left knees had sham surgeries. After surgery, 4-0 silk sutures were used to close the incision using an interrupted pattern. Mice were provided analgesia via intraperitoneal injection of buprenorphine (0.5 mg/kg) every 12 hours for 72 hours, and sutures were removed after 7 days. Mice were sacrificed, at the indicated time points, by anesthesia followed with whole animal perfusion using 10% NBF, knees were harvested and fixed for 7 days in 10% NBF, decalcified for 7 days in 10% w/v EDTA, embedded in paraffin, and 10-μm sections were cut and mounted for Safranin-O/Fast Green or IF staining.
# Semi-quantitative histopathologic grading was performed using a derivative of the Chambers' scoring system that has been established by the OARSI histopathology initiative as the standard method for grading of mouse cartilage degeneration. Based on this system, cartilage grading was carried out using Safranin-O/Fast Green-stained midsagittal sections. Three sections from representative levels (50 μm apart) of the medial compartment of the joint were selected for each sample and, which were evaluated in a randomized, blinded manner by 3 laboratory members. The 3 scores were averaged to calculate the section score, and the sample score was then calculated by averaging the scores obtained from the three levels. Grading was performed using the following scale: 0=normal cartilage, 0.5=loss of proteoglycan stain without cartilage damage, 1=mild superficial fibrillation, 2=fibrillation and/or clefting extending below the superficial zone, 3=mild (<25%) loss of cartilage, 4=moderate (25-50%) loss of cartilage, 5=severe (50-75%) loss of uncalcified cartilage, and 6=eburnation with >75% loss of cartilage. Grading was performed by three blinded observers (F.K., M.J.Z., and E.R.S.). Observer agreement was evaluated in pairs via calculation of a weighted kappa coefficient, using Fleiss-Cohen weights, as we have described. The F.K. versus M.J.Z. coefficient was 0.92, the F.K. versus E.R.S. coefficient was 0.94, and the M.J.Z. versus E.R.S coefficient was 0.89, all indicative of strong agreement between the observers.
# Using Safranin-O/Fast Green-stained sections, the OsteoMetrics system was used to quantify the above parameters on three sections from representative levels (50 μm apart) of the medial compartment of the joint for each sample. Live images of the center of the knee joint were collected through an Olympus microscope (10× objective) outfitted with a camera, a stylus was used to trace the regions of interest (ROIs). A blinded observer quantified uncalcified articular cartilage area, total chondrocyte number and matrix-producing chondrocyte number using the built-in area calculation algorithms and quantification functions of the OsteoMeasure® system. […]
# [2] = tested on: DMM mice; assay: DMM mice treated with PTH, paroxetine or their combination: histology and histomorphometry (Example 1); type: in vivo, mouse; conditions: treatment week 8 to 12, PTH sc 40 μg/kg/day, paroxetine ip 5 mg/kg/day
# Procedure: Methods: Destabilization of the medial meniscus (DMM) surgery was used to simulate clinical post-traumatic OA. First, we determined the role of GRK2 inhibition in PTH1R Gas-cAMP signaling: 12 week old male mice underwent sham or DMM surgery and were treated with either vehicle or the GRK2 inhibitor “paroxetine” (ip, 5 mg/kg/day), treatment was initiated at the time of surgery and continued daily until 8 weeks. Knees were harvested and articular cartilage was obtained for ex vivo analysis of Gas activity. In ex vivo culture, cartilage explants were treated with PTH as an agonist to stimulate PTH1R-Ga-cAMP signaling. Thirty minutes following PTH stimulation, cartilage tissue was homogenized and cAMP levels were measured. Then, we determined the role of GRK2 inhibition in recovering or even potentiating PTH1R signaling in OA cartilage: 12 week old male mice underwent sham or DMM surgery, and received treatment with vehicle, PTH (sc, 40 μg/kg/day) alone, the GRK2 inhibitor “paroxetine3” (ip, 5 mg/kg/day) alone, or their combination. Treatment was initiated at week 8 following DMM surgery, where OA is in progress, and continued until week 12 where mice were sacrificed. Knees were harvested, paraffin embedded, sectioned and stained with safranin-o and fast green for histological evaluation, OARSI scoring, and histomorphometric analysis. Results are expressed as mean values+s.e.m. with an N=5-8 mice per experimental group. Statistical analyses were performed using one ANVOA with P<0.05 representing statistical significance.
# [3] = tested on: PTH1R Gas/cAMP signaling; assay: PTH-stimulated cAMP in articular cartilage explants of sham or DMM mice treated with paroxetine; parameters: species or system mouse; conditions: paroxetine ip 5 mg/kg/day for 8 weeks, cartilage stimulated with PTH ex vivo, 30 minutes
# Procedure: Methods: Destabilization of the medial meniscus (DMM) surgery was used to simulate clinical post-traumatic OA. First, we determined the role of GRK2 inhibition in PTH1R Gas-cAMP signaling: 12 week old male mice underwent sham or DMM surgery and were treated with either vehicle or the GRK2 inhibitor “paroxetine” (ip, 5 mg/kg/day), treatment was initiated at the time of surgery and continued daily until 8 weeks. Knees were harvested and articular cartilage was obtained for ex vivo analysis of Gas activity. In ex vivo culture, cartilage explants were treated with PTH as an agonist to stimulate PTH1R-Ga-cAMP signaling. Thirty minutes following PTH stimulation, cartilage tissue was homogenized and cAMP levels were measured. Then, we determined the role of GRK2 inhibition in recovering or even potentiating PTH1R signaling in OA cartilage: 12 week old male mice underwent sham or DMM surgery, and received treatment with vehicle, PTH (sc, 40 μg/kg/day) alone, the GRK2 inhibitor “paroxetine3” (ip, 5 mg/kg/day) alone, or their combination. Treatment was initiated at week 8 following DMM surgery, where OA is in progress, and continued until week 12 where mice were sacrificed. […] Results are expressed as mean values+s.e.m. with an N=5-8 mice per experimental group. […]
# [4] = tested on: DMM mice; assay: Gait (stride length) in DMM mice; type: in vivo, mouse; conditions: daily treatment week 8 to 12, measured 12 weeks following DMM
# Text: Paroxetine normalizes changes in the gait of DMM mice. Stride length in centimeters measured for sham mice and DMM mice 12 weeks following DMM. DMM mice received respective daily treatments from week 8 until week 12 following DMM: vehicle (V) or Paroxetine (Px). **P<0.01 & ***P<0.001
# [5] = tested on: DMM mice; assay: Response threshold to mechanical pain stimulus in DMM mice; type: in vivo, mouse; conditions: daily treatment week 8 to 12, measured 12 weeks following DMM
# Text: Paroxetine attenuates pain sensitivity of DMM mice. Response threshold to mechanical pain stimulus measured in sham mice and DMM mice 12 weeks following DMM. DMM mice received respective daily treatments from week 8 until week 12 following DMM: vehicle (V) or Paroxetine (Px). *P<0.05 & ***P<0.001.
Structure (SMILES),cartilage degeneration (Safranin-O and Fast Green histology) [1],chondro-protective and matrix-regenerative effects (overall) [1],total number of chondrocytes [1],uncalcified cartilage area [1],OARSI score [1],number of matrix producing chondrocytes [1],chondrocyte number [2],number of matrix-producing (anabolic) chondrocytes [2],uncalcified cartilage area [2],PTH/PTH1R-mediated cAMP production ([3]; DMM mice),PTH/PTH1R-mediated cAMP production ([3]; sham mice),changes in the gait (stride length) [4],pain sensitivity (response threshold to mechanical pain stimulus) [5]
O=C1OC2(c3ccccc31)c1ccc(O)c(O)c1Oc1c2ccc(O)c1O [gallein],reduced,exert both a chondro-protective and a matrix-regenerative effects; also recorded: equivalent to that of paroxetine,preserved,preserved,lower,higher number,–,–,–,–,–,–,–
Fc1ccc([C@@H]2CCNC[C@H]2COc2ccc3c(c2)OCO3)cc1 [paroxetine],reduced,exert both a chondro-protective and a matrix-regenerative effects,preserved,preserved,lower,higher number,increased,particular increase,increased,recovered,potentiated,normalizes,attenuates
